Experimental data: ChEMBL document CHEMBL3870328, “Synthesis of novel Ral inhibitors: An in vitro and in vivo study” (Bioorg Med Chem Lett, 2016)

Experiments:
[1] = Drug uptake in heart of mouse xenografted with human NCI-H2122 cells at 50 mg/kg, ip after 3 hrs by LC-MS/MS analysis; assay type: ADME, organism-based; conditions: read-out: Drug uptake
[2] = Drug uptake in liver of mouse xenografted with human NCI-H2122 cells at 50 mg/kg, ip after 3 hrs by LC-MS/MS analysis; assay type: ADME, organism-based; conditions: read-out: Drug uptake
[3] = Drug uptake in tumor of mouse xenografted with human NCI-H2122 cells at 50 mg/kg, ip after 3 hrs by LC-MS/MS analysis; assay type: ADME, organism-based, Neoplasm; conditions: read-out: Drug uptake
[4] = Drug metabolism in CD1 mouse liver microsomes assessed as CYP450-mediated mono-oxidation by measuring 6-amino-4-(2,5-dihydroxyphenyl)-3-(naphthalen-2-yl)-1,4-dihydropyrano[2,3-c]pyrazole-5-carbonitrile metabolite formation at 16.7 uM after 10 mins in presence of NADPH by LC-MS/MS analysis; assay type: ADME
[5] = Drug metabolism in CD1 mouse liver microsomes assessed as CYP450-mediated mono-oxidation by measuring M1 metabolite formation at 16.7 uM after 10 mins in presence of NADPH by LC-MS/MS analysis; assay type: ADME
[6] = Drug metabolism in CD1 mouse liver microsomes assessed as CYP450-mediated mono-oxidation by measuring M3 metabolite formation at 16.7 uM after 10 mins in presence of NADPH by LC-MS/MS analysis; assay type: ADME
[7] = Drug metabolism in CD1 mouse liver microsomes assessed as CYP450-mediated mono-oxidation by measuring M5 metabolite formation at 16.7 uM after 10 mins in presence of NADPH by LC-MS/MS analysis; assay type: ADME
[8] = Drug metabolism in mouse xenografted with human NCI-H2122 cells assessed as M1 metabolite formation in plasma at 50 mg/kg, ip after 3 hrs by LC-MS/MS analysis; assay type: ADME, organism-based; conditions: in vivo
[9] = Drug metabolism in mouse xenografted with human NCI-H2122 cells assessed as M1 metabolite formation in tumor at 50 mg/kg, ip after 3 hrs by LC-MS/MS analysis; assay type: ADME, organism-based, Neoplasm; conditions: in vivo
[10] = Drug metabolism in mouse xenografted with human NCI-H2122 cells assessed as M1 metabolite formation in kidney at 50 mg/kg, ip after 3 hrs by LC-MS/MS analysis; assay type: ADME, organism-based; conditions: in vivo
[11] = Drug metabolism in mouse xenografted with human NCI-H2122 cells assessed as M1 metabolite formation in liver at 50 mg/kg, ip after 3 hrs by LC-MS/MS analysis; assay type: ADME, organism-based; conditions: in vivo
[12] = Drug metabolism in mouse xenografted with human NCI-H2122 cells assessed as M1 metabolite formation in lungs at 50 mg/kg, ip after 3 hrs by LC-MS/MS analysis; assay type: ADME, organism-based, Lung; conditions: in vivo
[13] = Drug metabolism in mouse xenografted with human NCI-H2122 cells assessed as M1 metabolite formation in heart at 50 mg/kg, ip after 3 hrs by LC-MS/MS analysis; assay type: ADME, organism-based; conditions: in vivo
[14] = Drug metabolism in mouse xenografted with human NCI-H2122 cells assessed as 6-amino-4-(2,5-dihydroxyphenyl)-3-(naphthalen-2-yl)-1,4-dihydropyrano[2,3-c]pyrazole-5-carbonitrile metabolite formation in plasma at 50 mg/kg, ip after 3 hrs by LC-MS/MS analysis; assay type: ADME, organism-based; conditions: in vivo
[15] = Drug metabolism in mouse xenografted with human NCI-H2122 cells assessed as 6-amino-4-(2,5-dihydroxyphenyl)-3-(naphthalen-2-yl)-1,4-dihydropyrano[2,3-c]pyrazole-5-carbonitrile metabolite formation in kidney at 50 mg/kg, ip after 3 hrs by LC-MS/MS analysis; assay type: ADME, organism-based; conditions: in vivo
[16] = Drug metabolism in mouse xenografted with human NCI-H2122 cells assessed as 6-amino-4-(2,5-dihydroxyphenyl)-3-(naphthalen-2-yl)-1,4-dihydropyrano[2,3-c]pyrazole-5-carbonitrile metabolite formation in liver at 50 mg/kg, ip after 3 hrs by LC-MS/MS analysis; assay type: ADME, organism-based; conditions: in vivo
[17] = Drug metabolism in mouse xenografted with human NCI-H2122 cells assessed as 6-amino-4-(2,5-dihydroxyphenyl)-3-(naphthalen-2-yl)-1,4-dihydropyrano[2,3-c]pyrazole-5-carbonitrile metabolite formation in lungs at 50 mg/kg, ip after 3 hrs by LC-MS/MS analysis; assay type: ADME, organism-based, Lung; conditions: in vivo
[18] = Drug metabolism in mouse xenografted with human NCI-H2122 cells assessed as M3 metabolite formation in plasma at 50 mg/kg, ip after 3 hrs by LC-MS/MS analysis; assay type: ADME, organism-based; conditions: in vivo
[19] = Drug metabolism in mouse xenografted with human NCI-H2122 cells assessed as M3 metabolite formation in tumor at 50 mg/kg, ip after 3 hrs by LC-MS/MS analysis; assay type: ADME, organism-based, Neoplasm; conditions: in vivo
[20] = Drug metabolism in mouse xenografted with human NCI-H2122 cells assessed as M3 metabolite formation in kidney at 50 mg/kg, ip after 3 hrs by LC-MS/MS analysis; assay type: ADME, organism-based; conditions: in vivo
[21] = Drug metabolism in mouse xenografted with human NCI-H2122 cells assessed as M3 metabolite formation in heart at 50 mg/kg, ip after 3 hrs by LC-MS/MS analysis; assay type: ADME, organism-based; conditions: in vivo
[22] = Drug metabolism in mouse xenografted with human NCI-H2122 cells assessed as M4 metabolite formation in plasma at 50 mg/kg, ip after 3 hrs by LC-MS/MS analysis; assay type: ADME, organism-based; conditions: in vivo
[23] = Drug metabolism in mouse xenografted with human NCI-H2122 cells assessed as M4 metabolite formation in tumor at 50 mg/kg, ip after 3 hrs by LC-MS/MS analysis; assay type: ADME, organism-based, Neoplasm; conditions: in vivo
[24] = Drug metabolism in mouse xenografted with human NCI-H2122 cells assessed as M4 metabolite formation in liver at 50 mg/kg, ip after 3 hrs by LC-MS/MS analysis; assay type: ADME, organism-based; conditions: in vivo
[25] = Drug metabolism in mouse xenografted with human NCI-H2122 cells assessed as M4 metabolite formation in lungs at 50 mg/kg, ip after 3 hrs by LC-MS/MS analysis; assay type: ADME, organism-based, Lung; conditions: in vivo
[26] = Drug metabolism in mouse xenografted with human NCI-H2122 cells assessed as M4 metabolite formation in heart at 50 mg/kg, ip after 3 hrs by LC-MS/MS analysis; assay type: ADME, organism-based; conditions: in vivo
[27] = Drug metabolism in mouse xenografted with human NCI-H2122 cells assessed as M5 metabolite formation in plasma at 50 mg/kg, ip after 3 hrs by LC-MS/MS analysis; assay type: ADME, organism-based; conditions: in vivo
[28] = Drug metabolism in mouse xenografted with human NCI-H2122 cells assessed as M5 metabolite formation in tumor at 50 mg/kg, ip after 3 hrs by LC-MS/MS analysis; assay type: ADME, organism-based, Neoplasm; conditions: in vivo
[29] = Drug metabolism in mouse xenografted with human NCI-H2122 cells assessed as M5 metabolite formation in kidney at 50 mg/kg, ip after 3 hrs by LC-MS/MS analysis; assay type: ADME, organism-based; conditions: in vivo
[30] = Drug metabolism in mouse xenografted with human NCI-H2122 cells assessed as M5 metabolite formation in liver at 50 mg/kg, ip after 3 hrs by LC-MS/MS analysis; assay type: ADME, organism-based; conditions: in vivo
[31] = Drug metabolism in mouse xenografted with human NCI-H2122 cells assessed as M5 metabolite formation in lungs at 50 mg/kg, ip after 3 hrs by LC-MS/MS analysis; assay type: ADME, organism-based, Lung; conditions: in vivo
[32] = Drug metabolism in mouse xenografted with human NCI-H2122 cells assessed as M5 metabolite formation in heart at 50 mg/kg, ip after 3 hrs by LC-MS/MS analysis; assay type: ADME, organism-based; conditions: in vivo

For `COc1ccc(OC)c(C2C(C#N)=C(N)Oc3[nH]nc(-c4ccc5ccccc5c4)c32)c1` (configuration not stated), which concentration at 3 h [1] is on record?
The concentration at 3 h was 13700 ng/g.

And the concentration at 3 h [2]?
Its concentration at 3 h is 39700 ng/g.

What about the concentration at 3 h [3] of the same compound?
Its concentration at 3 h is 5830 ng/g.

And the Drug metabolism [4]?
The Drug metabolism was “Metabolite_Detected”.

What about the Drug metabolism [5] of the same compound?
The Drug metabolism was “Metabolite_Detected”.

And the Drug metabolism [6]?
The Drug metabolism was “Metabolite_Detected”.

And the Drug metabolism [7]?
The Drug metabolism was “Metabolite_Detected”.

What about the Drug metabolism [8] of the same compound?
Its Drug metabolism is 7.7 ng/mL.

And the Drug metabolism [9]?
Its Drug metabolism is 7.4 ng/g.

And the Drug metabolism [10]?
The Drug metabolism was 135.2 ng/g.

What about the Drug metabolism [11] of the same compound?
The Drug metabolism was 557.4 ng/g.

And the Drug metabolism [12]?
Its Drug metabolism is 18.2 ng/g.

And the Drug metabolism [13]?
The Drug metabolism was 12.4 ng/g.

What about the Drug metabolism [14] of the same compound?
The Drug metabolism was 8.4 ng/mL.

And the Drug metabolism [15]?
Its Drug metabolism is 3.7 ng/g.

And the Drug metabolism [16]?
The Drug metabolism was 160.8 ng/g.

And the Drug metabolism [17]?
Its Drug metabolism is 1.1 ng/g.

And the Drug metabolism [18]?
The Drug metabolism was 14.2 ng/mL.

What about the Drug metabolism [19] of the same compound?
Its Drug metabolism is 0.7 ng/g.

And the Drug metabolism [20]?
Its Drug metabolism is 4.1 ng/g.

And the Drug metabolism [21]?
Its Drug metabolism is 1.1 ng/g.

What about the Drug metabolism [22] of the same compound?
The Drug metabolism was 37.8 ng/mL.

What about the Drug metabolism [23] of the same compound?
The Drug metabolism was 10.2 ng/g.

And the Drug metabolism [24]?
The Drug metabolism was 1391.3 ng/g.

What about the Drug metabolism [25] of the same compound?
Its Drug metabolism is 46.8 ng/g.

And the Drug metabolism [26]?
Its Drug metabolism is 33.5 ng/g.

What about the Drug metabolism [27] of the same compound?
Its Drug metabolism is 2.7 ng/mL.

What about the Drug metabolism [28] of the same compound?
The Drug metabolism was 1.4 ng/g.

And the Drug metabolism [29]?
Its Drug metabolism is 20.9 ng/g.

What about the Drug metabolism [30] of the same compound?
Its Drug metabolism is 72.6 ng/g.

What about the Drug metabolism [31] of the same compound?
The Drug metabolism was 11.5 ng/g.

What about the Drug metabolism [32] of the same compound?
The Drug metabolism was 5.5 ng/g.
